Data taken from US9918915B2, “Personal care compositions providing enhanced cooling sensation” (THE PROCTER & GAMBLE COMPANY, priority 2007, dated 2018).

Tests used:
human TRPM8 = human TRPM8 (Homo sapiens, UniProt Q7Z2W7); experiment: FLIPR intracellular calcium flux (Fluo-4) in HEK cells stably transfected with human TRPM8; details: for % Change from G-180 value: pre-treatment with 100 uM test compound + 6.25 uM G-180 vs 6.25 uM G-180 alone, calcium fluorescence; for Average Fluorescence (n = 3): HEK cells with human TRPM8, Fluo-4
panelists = experiment: Sensory evaluation of cooling sensation after brushing with coolant dentifrice followed by aqueous rinse with or without calcium; type: in vivo, human; set-up: key to Cooling Sensation Score: 0 = no cooling, 60 = intense cooling; 7.5 = definite cooling; details: 0-60 scale
Method: Sensory evaluation studies of coolant activity were conducted using a methodology patterned after the techniques described in M. C. Meilgaard, et al., Sensory Evaluation Techniques, 4th Ed. (2007). In one study, a panel of 11 trained sensory experts evaluated cooling sensation experienced after brushing with a dentifrice containing coolant(s) followed by rinsing with an aqueous rinse containing a calcium ion source. Panelists brushed teeth with 1.5 grams of a test dentifrice (containing coolant) or control (no coolant) and then expectorated. After brush expectoration, panelists evaluated cooling intensity, assigning a number between 0 (no cooling) to 60 (intense cooling). Panelists then rinsed mouth with 15 ml. of an aqueous rinse (with or without calcium) and expectorated. After rinse expectoration, panelists evaluated cooling intensity according to the same 0 to 60 scale. Evaluations were conducted at 5, 15, 30, 45, 60 minute, etc. time points. At each evaluation, panelists were instructed to breathe in through pursed lips and evaluate overall cooling sensation. In this test, a numerical score of 7.5 indicates meaningful or definite cooling.

[1] = pre-treatment with 100 uM test compound for 30 minutes, then 6.25 uM G-180

Chain of human TRPM8 (Q7Z2W7 whole entry): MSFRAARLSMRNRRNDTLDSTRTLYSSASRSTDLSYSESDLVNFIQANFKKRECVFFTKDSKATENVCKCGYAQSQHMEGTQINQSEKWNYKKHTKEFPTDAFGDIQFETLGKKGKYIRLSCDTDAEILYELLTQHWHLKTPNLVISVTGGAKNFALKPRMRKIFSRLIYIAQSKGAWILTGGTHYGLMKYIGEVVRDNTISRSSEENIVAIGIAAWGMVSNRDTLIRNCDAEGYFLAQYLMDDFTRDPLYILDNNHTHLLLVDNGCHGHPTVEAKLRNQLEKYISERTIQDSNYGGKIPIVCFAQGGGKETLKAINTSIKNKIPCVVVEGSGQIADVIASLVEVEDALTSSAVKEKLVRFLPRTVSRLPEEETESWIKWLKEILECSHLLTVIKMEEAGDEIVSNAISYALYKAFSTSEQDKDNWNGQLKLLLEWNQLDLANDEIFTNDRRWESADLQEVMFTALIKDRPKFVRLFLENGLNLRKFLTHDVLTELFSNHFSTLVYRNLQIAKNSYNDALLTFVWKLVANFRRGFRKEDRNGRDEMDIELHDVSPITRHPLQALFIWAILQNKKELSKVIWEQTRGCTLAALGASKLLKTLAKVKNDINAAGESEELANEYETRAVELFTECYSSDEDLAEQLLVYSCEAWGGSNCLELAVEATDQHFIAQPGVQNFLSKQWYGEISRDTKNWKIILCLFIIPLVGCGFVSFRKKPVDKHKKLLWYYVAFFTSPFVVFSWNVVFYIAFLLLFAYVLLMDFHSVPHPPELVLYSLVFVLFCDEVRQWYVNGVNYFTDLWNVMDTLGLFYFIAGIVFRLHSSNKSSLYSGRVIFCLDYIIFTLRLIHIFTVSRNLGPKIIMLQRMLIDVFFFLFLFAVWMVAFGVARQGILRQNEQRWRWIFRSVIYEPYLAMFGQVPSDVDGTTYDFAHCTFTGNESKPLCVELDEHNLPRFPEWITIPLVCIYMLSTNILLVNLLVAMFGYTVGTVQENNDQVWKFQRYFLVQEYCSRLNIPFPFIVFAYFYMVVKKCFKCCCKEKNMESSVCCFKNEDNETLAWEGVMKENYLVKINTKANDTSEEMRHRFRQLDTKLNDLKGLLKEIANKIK

## O=P([O-])([O-])OP(=O)([O-])OP(=O)([O-])[O-].[Na+].[Na+].[Na+].[Na+].[Na+] [Penta sodium triphosphate]
Human TRPM8
  % Change from G-180 value: 0.66%
Human TRPM8; [1]
  Average Fluorescence (n = 3): 17628.02

## O=P([O-])(O)OP(=O)([O-])O.[Na+].[Na+] [Sodium acid pyrophosphate]
Human TRPM8
  % Change from G-180 value: 3.22%
Human TRPM8; [1]
  Average Fluorescence (n = 3): 18075.77

## O=P(O)(O)OP(=O)(O)OP(=O)(O)O [Sodium tripolyphosphate]
Human TRPM8
  % Change from G-180 value: 5.69%
Human TRPM8; [1]
  Average Fluorescence (n = 3): 18508.43

## O=P(O)(O)O[C@H]1[C@H](OP(=O)(O)O)[C@@H](OP(=O)(O)O)[C@H](OP(=O)(O)O)[C@@H](OP(=O)(O)O)[C@H]1OP(=O)(O)O [Phytic acid, myo-inositol 1,2,3,4,5,6-hexakis (dihydrogen phosphate)]
Human TRPM8; 100 uM test compound alone (direct effect on TRPM8)
  Average Fluorescence (n = 3): 129.38
Human TRPM8
  % Change from G-180 value: 23.36%
Human TRPM8; listed as Phytic Acid
  % Change from G-180 value: 21.20%
Human TRPM8; listed as phytic acid
  % Change from G-180 value: 23.36%
Human TRPM8; [1]
  Average Fluorescence (n = 3): 18382.62
Human TRPM8; pre-treatment with 100 uM test compound for 30 minutes, then 6.25 uM G-180, listed as Phytic Acid
  Average Fluorescence (n = 3): 21178.86
Human TRPM8; separate experiments using the same protocol, 100 uM + 6.25 uM G-180
  Modulation of the G-180 activity at TRPM8: positive modulation was confirmed

## CCCCCCCCCCCCOP(=O)([O-])[O-].[Na+].[Na+] [Sodium lauryl phosphate]
Human TRPM8
  % Change from G-180 value: 5.10%
Human TRPM8; [1]
  Average Fluorescence (n = 3): 18404.83

## CCNC(=O)C1CC(C)CCC1C(C)C (stereo not drawn) [WS-3, N-ethyl-ρ-menthan-3-carboxamide]
panelists; 1000 ppm coolant in paste, rinse Ca+2 0 ppm, 0 min.
  Cooling Sensation Score: 26.2
panelists; 1000 ppm coolant in paste, rinse Ca+2 0 ppm, 5 min.
  Cooling Sensation Score: 25.4
panelists; 1000 ppm coolant in paste, rinse Ca+2 0 ppm, 15 min.
  Cooling Sensation Score: 11.3
panelists; 1000 ppm coolant in paste, rinse Ca+2 0 ppm, 30 min.
  Cooling Sensation Score: 0
panelists; 1000 ppm coolant in paste, rinse Ca+2 0 ppm, 45 min.
  Cooling Sensation Score: 0
panelists; 1000 ppm coolant in paste, rinse Ca+2 0 ppm, 60 min.
  Cooling Sensation Score: 0
panelists; 1000 ppm coolant in paste, rinse Ca+2 271 ppm, 0 min.
  Cooling Sensation Score: 23.8
panelists; 1000 ppm coolant in paste, rinse Ca+2 271 ppm, 5 min.
  Cooling Sensation Score: 21.4
panelists; 1000 ppm coolant in paste, rinse Ca+2 271 ppm, 15 min.
  Cooling Sensation Score: 10.8
panelists; 1000 ppm coolant in paste, rinse Ca+2 271 ppm, 30 min.
  Cooling Sensation Score: 2.4
panelists; 1000 ppm coolant in paste, rinse Ca+2 271 ppm, 45 min.
  Cooling Sensation Score: 0
panelists; 1000 ppm coolant in paste, rinse Ca+2 271 ppm, 60 min.
  Cooling Sensation Score: 0
panelists; 1000 ppm coolant in paste, rinse Ca+2 542 ppm, 0 min.
  Cooling Sensation Score: 23.6
panelists; 1000 ppm coolant in paste, rinse Ca+2 542 ppm, 5 min.
  Cooling Sensation Score: 14.0
panelists; 1000 ppm coolant in paste, rinse Ca+2 542 ppm, 15 min.
  Cooling Sensation Score: 0
panelists; 1000 ppm coolant in paste, rinse Ca+2 542 ppm, 30 min.
  Cooling Sensation Score: 0
panelists; 1000 ppm coolant in paste, rinse Ca+2 542 ppm, 45 min.
  Cooling Sensation Score: 0
panelists; 1000 ppm coolant in paste, rinse Ca+2 542 ppm, 60 min.
  Cooling Sensation Score: 0
panelists; 1500 ppm coolant in paste, rinse Ca+2 0 ppm, 0 min.
  Cooling Sensation Score: 18.1
panelists; 1500 ppm coolant in paste, rinse Ca+2 0 ppm, 5 min.
  Cooling Sensation Score: 29.4
panelists; 1500 ppm coolant in paste, rinse Ca+2 0 ppm, 15 min.
  Cooling Sensation Score: 12.7
panelists; 1500 ppm coolant in paste, rinse Ca+2 0 ppm, 30 min.
  Cooling Sensation Score: 0
panelists; 1500 ppm coolant in paste, rinse Ca+2 0 ppm, 45 min.
  Cooling Sensation Score: 0
panelists; 1500 ppm coolant in paste, rinse Ca+2 0 ppm, 60 min.
  Cooling Sensation Score: 0
panelists; 1500 ppm coolant in paste, rinse Ca+2 271 ppm, 0 min.
  Cooling Sensation Score: 20.0
panelists; 1500 ppm coolant in paste, rinse Ca+2 271 ppm, 5 min.
  Cooling Sensation Score: 29.8
panelists; 1500 ppm coolant in paste, rinse Ca+2 271 ppm, 15 min.
  Cooling Sensation Score: 9.5
panelists; 1500 ppm coolant in paste, rinse Ca+2 271 ppm, 30 min.
  Cooling Sensation Score: 1.1
panelists; 1500 ppm coolant in paste, rinse Ca+2 271 ppm, 45 min.
  Cooling Sensation Score: 0
panelists; 1500 ppm coolant in paste, rinse Ca+2 271 ppm, 60 min.
  Cooling Sensation Score: 0
panelists; 1500 ppm coolant in paste, rinse Ca+2 542 ppm, 0 min.
  Cooling Sensation Score: 19.3
panelists; 1500 ppm coolant in paste, rinse Ca+2 542 ppm, 5 min.
  Cooling Sensation Score: 23.7
panelists; 1500 ppm coolant in paste, rinse Ca+2 542 ppm, 15 min.
  Cooling Sensation Score: 5.0
panelists; 1500 ppm coolant in paste, rinse Ca+2 542 ppm, 30 min.
  Cooling Sensation Score: 2.7
panelists; 1500 ppm coolant in paste, rinse Ca+2 542 ppm, 45 min.
  Cooling Sensation Score: 0
panelists; 1500 ppm coolant in paste, rinse Ca+2 542 ppm, 60 min.
  Cooling Sensation Score: 0
